The values below come from the NIST ThermoML archive (doi:10.1016/j.jct.2019.03.007).

± gives the expanded uncertainty stated by the source.

The data set in a line: Molar enthalpy of transition or fusion. The note with it: DSC.

Consider `O=[N+]([O-])[O-].O=[N+]([O-])[O-].[Ca+2]` [calcium nitrate], for which the “Molar enthalpy of transition or fusion” value is, setting by setting: (Crystal 1) 7.98 ± 0.502 kcal/mol; (Crystal 2) 0.0289 ± 0.0263 kcal/mol.
